Data on 26 molecules can be found in US20100022542A1, “COMPOUNDS EXHIBITING THROMBOPOIETIN RECEPTOR AGONISM” (Shionogi & Co., Ltd., priority 2000, published 2010).

The assay concerns the target T1, human TPO receptor (hTPOR) (Homo sapiens, UniProt P40238).
T1 construct: expressed in transfected cells; host or cells: BaF-B03 (murine IL-3 dependent cell line)
T1 sequence (P40238 26-635): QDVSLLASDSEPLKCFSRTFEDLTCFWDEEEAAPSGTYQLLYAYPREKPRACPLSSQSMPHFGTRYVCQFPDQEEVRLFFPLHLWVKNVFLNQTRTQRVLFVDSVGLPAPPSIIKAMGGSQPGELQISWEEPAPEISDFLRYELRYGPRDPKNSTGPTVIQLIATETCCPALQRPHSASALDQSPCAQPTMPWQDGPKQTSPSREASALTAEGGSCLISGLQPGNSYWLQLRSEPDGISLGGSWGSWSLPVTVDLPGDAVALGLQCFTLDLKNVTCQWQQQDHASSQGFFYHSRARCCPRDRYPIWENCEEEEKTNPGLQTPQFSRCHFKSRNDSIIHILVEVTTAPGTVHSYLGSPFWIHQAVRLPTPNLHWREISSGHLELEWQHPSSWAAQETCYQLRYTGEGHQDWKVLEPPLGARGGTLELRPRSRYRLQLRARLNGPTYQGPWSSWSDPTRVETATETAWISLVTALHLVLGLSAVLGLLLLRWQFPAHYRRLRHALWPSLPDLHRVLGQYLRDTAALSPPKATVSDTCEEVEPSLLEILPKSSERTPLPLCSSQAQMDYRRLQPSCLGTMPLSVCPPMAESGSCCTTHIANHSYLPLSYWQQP
In words: Proliferation of TPO dependent BaF/hTPOR cells, WST-1, thrombopoietic activity ED50 (Test Example 3). The assay is classed as cell-based. The note with it: 20 h incubation then WST-1 4 h, absorbance at 450 nm. The text has this:
FIG. 2: The chart represents proliferation of the human TPO dependent cells bearing human TPO receptors by the present invention compound, wherein the x-axis is concentration of the present invention compound, and the y-axis is the absorbance as an indicator of cell proliferation. Open circles indicate a response of human TPO, and closed circles indicate a response of the compound (B-1).
The TPO dependent BaF/hTPOR cell line which was established by introducing human TPO receptor (hTPOR) into BaF-B03 cells according to Collins et al (J. Cell. Physiol., 137:293-298 (1988)) was used to test the thrombopoietic activity of the present compound. The DNA sequences and encoded peptide sequences for human hTPOR have been described by Vigon et al (Proc. Natl. Acad. Sci. USA, 89:5640-5644 (1992)). TPO dose not have any ability to support proliferation of interleukin-3 dependent parental cell line BaF-B03. BAF/hTPOR cells were maintained in RPMI medium and WEHI-3B conditioned medium as a source of murine interleukin-3 (IL-3). These cells were washed and resuspended in RPMI medium without a source of murine IL-3 and seeded into each well of 96-well microtiter plates at a density of 5×10^4 cells per well in the absence or presence of various concentration of hTPO or the present compound. After incubation at 37° C. for 20 hours in the 5% CO2 incubator, 10% WST-1 reagent (Takara Biomedicals, Japan) was added to each wells and the cells were further incubated for 4 hours. Effect of the present compound on the growth of BAF/mTPOR cell line which was established by introducing murine TPO receptor (mTPOR) into BAF-B03 cells is shown in FIG. 3. Table 8 exemplifies the ED50 for tested compounds of the present invention, wherein the ED50 is the half concentration of the concentration showing the maximum thrombopoietic activity.
A general note: Tetrazolium assays rely on reduction of a dye to a coloured formazan, in cell work by metabolically active cells.

The structures appear in SMILES notation.

A word on the EC50: it is the concentration needed to bring the measured effect to its halfway point. Higher therefore signals a less potent agent. Take `C=CCNC(=O)/C(C)=C/c1ccc(C(=O)Nc2nc(-c3ccc(Cl)c(Cl)c3)cs2)cc1` [Compound B-41]: the EC50 came to 190 nM.

For `COCCNC(=O)/C(C)=C/c1ccc(C(=O)Nc2nc(-c3ccc(Cl)c(Cl)c3)cs2)cc1` [Compound B-42], the EC50 amounted to 236 nM.

Take `CC(=O)NNC(=O)/C(C)=C/c1ccc(C(=O)Nc2nc(-c3ccc(Cl)c(Cl)c3)cs2)cc1` [Compound B-43]: the concentration giving a half-maximal response (EC50) is 303 nM.

`CONC(=O)/C(C)=C/c1ccc(C(=O)Nc2nc(-c3ccc(Cl)c(Cl)c3)cs2)cc1` [Compound B-46] had a half-maximal effective concentration (EC50) of 213 nM.

In turn, `O=C(O)C(Br)=Cc1ccc(C(=O)Nc2nc(-c3ccc(Cl)c(Cl)c3)cs2)cc1` [Compound C-4] came in with an EC50 of 922 nM.

`CC(=Cc1ccc(C(=O)Nc2nc(-c3ccc(Cl)c(Cl)c3)cs2)cc1)c1ncc[nH]1` [Compound D-1] yielded a half-maximal effective concentration (EC50) of 276 nM.

For `CC(=Cc1ccc(C(=O)Nc2nc(-c3ccc(Cl)c(Cl)c3)cs2)cc1)S(=O)(=O)N(C)C` [Compound F-1], the EC50 came to 174 nM.

Molecule `CC(=Cc1ccc(C(=O)Nc2nc(-c3ccc(Cl)c(Cl)c3)cs2)cc1)S(=O)(=O)NC(C)(C)C` [Compound F-2] displayed a concentration giving a half-maximal response (EC50) of 144 nM.

As to `CC(=Cc1ccc(C(=O)Nc2nc(-c3ccc(Cl)c(Cl)c3)cs2)cc1)S(N)(=O)=O` [Compound F-3], the EC50 amounted to 198 nM.

With `COC(=O)CCc1ccc(C(=O)Nc2nc(-c3ccc(Cl)c(Cl)c3)cs2)cc1` [Compound G-1], the EC50 was found to be 261 nM.

Molecule `O=C(O)CCc1ccc(C(=O)Nc2nc(-c3ccc(Cl)c(Cl)c3)cs2)cc1` [Compound G-2] showed a half-maximal effective concentration (EC50) of 299 nM.

Molecule `CC(Cc1ccc(C(=O)Nc2nc(-c3ccc(Cl)c(Cl)c3)cs2)cc1)C(=O)O` (centres unmarked) [Compound G-3] had an EC50 of 430 nM.

As for `O=C(Nc1nc(-c2ccc(Cl)c(Cl)c2)cs1)c1ccc(CC(Cl)C(=O)O)cc1` (centres unmarked) [Compound G-4], the EC50 worked out at 240 nM.

As to `COC(=O)C(Cl)Cc1ccc(C(=O)Nc2nc(-c3ccc(Cl)c(Cl)c3)cs2)cc1` (centres unmarked) [Compound G-5], a half-maximal response (EC50) required 260 nM.

In the case of `O=C(Nc1nc(-c2ccc(Cl)c(Cl)c2)cs1)c1ccc(CC(F)C(=O)O)cc1` (centres unmarked) [Compound G-6], a half-maximal response (EC50) required 370 nM.

For `CCOC(=O)C(F)Cc1ccc(C(=O)Nc2nc(-c3ccc(Cl)c(Cl)c3)cs2)cc1` (centres unmarked) [Compound G-7], the EC50 came out at 400 nM.

As to `CC(c1ccc(C(=O)Nc2nc(-c3ccc(Cl)c(Cl)c3)cs2)cc1)C(Cl)C(=O)O` (centres unmarked) [Compound G-8], the midpoint of the response, the EC50, lay at 360 nM.

In turn, `Cc1sc(NC(=O)c2ccc(/C=C(\Cl)C(=O)O)cc2)nc1-c1ccc(F)cc1F` [Compound J-11] gave an EC50 of 311 nM.

As to `Cc1sc(NC(=O)c2ccc(/C=C(\Cl)C(=O)O)cc2)nc1-c1cccc(C(F)(F)F)c1F` [Compound J-12], the response was half-maximal at 107 nM (EC50).

`Cc1sc(NC(=O)c2ccc(/C=C(\Cl)C(=O)O)cc2)nc1-c1cccc(Br)c1` [Compound J-13] had an EC50 of 116 nM.

With `Cc1sc(NC(=O)c2ccc(/C=C(\Cl)C(=O)O)cc2)nc1-c1cccc(C(F)(F)F)c1` [Compound J-14], a half-maximal effect (EC50) was put at 36 nM.

As to `CCCCCc1cccc2c1CCc1sc(NC(=O)c3ccc(/C=C(\Cl)C(=O)O)cc3)nc1-2` [Compound J-15], the midpoint of the response, the EC50, lay at 11 nM.

`COC(=O)C#Cc1ccc(C(=O)Nc2nc(-c3ccc(Cl)c(Cl)c3)cs2)cc1` [Compound L-1]: the EC50 turned out to be 208 nM.

With `O=C(O)C#Cc1ccc(C(=O)Nc2nc(-c3ccc(Cl)c(Cl)c3)cs2)cc1` [Compound L-2], the response was half-maximal at 143 nM (EC50).

In turn, `COC(=O)C#Cc1ccc(C(=O)Nc2nc(-c3ccc(Cl)c(Cl)c3)cs2)cc1OC` [Compound L-3] gave an EC50 of 321 nM.

Turning to `COc1cc(C(=O)Nc2nc(-c3ccc(Cl)c(Cl)c3)cs2)ccc1C#CC(=O)O` [Compound L-4], the half-maximal effective concentration (EC50) is 256 nM.
